Legend:
[1] = tested on: E-cad; details: lung cancer cell lines; cited from earlier work
[2] = tested on: EGFR; assay: EGFR phosphorylation in E-cad transfected H157 cell lines; type: cell-based; details: E-cad transfected H157 cell lines treated with EGF
Method: Cell Culture, Drugs and MTS assay. Twenty NSCLC cell lines were used: squamous (NCI-H157, HCC95, HCC15 and H441), large-cell (H460, H1299, H2126 and H1264, a derivative of H460), adeno (Calu3, A549, H2122, H1648, H520, HCC78, HCC193, H2009, HCC44 and H3255) and bronchioalveolar (H358 and H322). The NSCLC cell lines, HCC78, H2126, HCC95, H1299, HCC193, HCC44, HCC15, H2009 were obtained from UTSW and the H3255 was a gift from Dr. Bruce Johnson. All lines were cultured in RPMI medium 1640 under standard conditions. […] The drugs were diluted in fresh media before each experiment, and the final dimethyl sulfoxide concentration was <0.1%. […] Growth inhibition was assessed by MTS (3-(4,5-dimethylthiazol-2-yl)-5-(3-carboxymethoxyphenyl)-2-(4-sulfophenyl)2H-tetrazolium, inner salt) assay (Promega, Madison, Wis.). […] The absorbency of each well is measured using an automated plate reader. The data was analyzed using a SlideWrite program to determine the IC50 of the drug. […] After sonication, the Bradford assay was used for protein quantification. […]
The effect of E-cad on NSCLC cell lines apoptotic response to gefitinib was assessed by transfecting a gefitinib-resistant cell line, H157, with an E-cad-encoding adenovirus. […] Higher expression of E-cad was detected in the H157-E-cad-3 cell line compared to the H157-E-cad-3 cell line. […]

[3] = tested on: NSCLC patients; details: single agent, phase I studies including chemotherapy resistant NSCLC patients; cited from earlier work
[4] = tested on: HPAFII pancreatic cancer cell line; assay: Modified MTT growth inhibition assay; type: cell-based; details: SNDX275 added as first drug
Method: (§1) Combination administrations were performed as sequential treatments where the HDAC inhibitor was administer prior to the EGFR inhibitor, or simultaneous treatments in selected cell lines. Concentrations of HDAC inhibitors and EGFR inhibitors are indicated as μM concentrations in all experiments. SNDX275 was administered in three increasing concentrations, with a variety of ranges depending upon the cell line.
(§2) Drugs were diluted in fresh medium before each experiment, and the final DMSO concentration was <0.1%. Growth inhibition was assessed using a modified MTT assay. 2×10^3 cells were plated in each well of 96-well flat-bottomed microtiter plates and drugs were added the next day. […] The microtiter plates were incubated for 4 hours at 37° C. The visible absorbance of each well was measured using an automated plate reader (Molecular Devices, Sunnyvale, Calif.), and data were analyzed using SlideWrite to determine the drug IC50.

[5] = tested on: MSK2922 head & neck cancer cell line; assay: Modified MTT growth inhibition assay; type: cell-based; details: SNDX275 added as first drug
Method: as §1, §2

[6] = tested on: Detroit562 head & neck cancer cell line; assay: Modified MTT growth inhibition assay; type: cell-based
Method: as §1, §2

[7] = tested on: Panc02.03 pancreatic cancer cell line; assay: Modified MTT growth inhibition assay; type: cell-based; details: Panc 02.03
Method: as §1, §2

[8] = tested on: FaDu head & neck cancer cell line; assay: Modified MTT growth inhibition assay; type: cell-based
Method: as §1, §2

[9] = tested on: Panc04.03 pancreatic cancer cell line; assay: Modified MTT growth inhibition assay; type: cell-based; details: Panc 04.03
Method: as §1, §2

[10] = tested on: 584 head & neck cancer cell line; assay: Modified MTT growth inhibition assay; type: cell-based; details: SNDX275 added as first drug
Method: as §1, §2

[11] = tested on: Panc03.27 pancreatic cancer cell line; assay: Modified MTT growth inhibition assay; type: cell-based; details: Panc 03.27, both drugs added at the same time
Method: as §1, §2

[12] = tested on: UMSCC22B head & neck cancer cell line; assay: Modified MTT growth inhibition assay; type: cell-based
Method: as §1, §2

[13] = tested on: HS766T pancreatic cancer cell line; assay: Modified MTT growth inhibition assay; type: cell-based
Method: as §1, §2

[14] = tested on: UMSCC19 head & neck cancer cell line; assay: Modified MTT growth inhibition assay; type: cell-based
Method: as §1, §2

[15] = tested on: 1483 head & neck cancer cell line; assay: Modified MTT growth inhibition assay; type: cell-based; details: SNDX275 added as first drug
Method: as §1, §2

[16] = tested on: A549 NSCLC cell line; assay: Apoptosis and cell death analysis; type: cell-based; details: 10 μM gefitinib
Method: The effect of gefitinib on inducing apoptosis and cell death in NSCLC cell lines sensitive and resistant to gefitinib was evaluated. […].

[17] = tested on: H157 NSCLC cell line; assay: Apoptosis and cell death analysis; type: cell-based; details: 10 μM gefitinib
Method: (§3) The effect of gefitinib on inducing apoptosis and cell death in NSCLC cell lines sensitive and resistant to gefitinib was evaluated. […] Expression of E-cad was evaluated in these cell lines.

[18] = tested on: H520 NSCLC cell line; assay: Apoptosis and cell death analysis; type: cell-based; details: 10 μM gefitinib
Method: as §3

[19] = tested on: H460 NSCLC cell line; assay: Apoptosis and cell death analysis; type: cell-based; details: 10 μM gefitinib
Method: as §3

[20] = erlotinib 0.06 μM alone, SNDX275 added as first drug
[21] = erlotinib 0.06 μM alone, both drugs added at the same time
[22] = erlotinib 3.00 μM alone, SNDX275 added as first drug
[23] = erlotinib 3.00 μM alone, both drugs added at the same time
[24] = erlotinib 0.3 μM alone, SNDX275 added as first drug
[25] = erlotinib 0.3 μM alone, both drugs added at the same time
[26] = erlotinib 2.0 μM alone, SNDX275 added as first drug
[27] = erlotinib 2.0 μM alone, both drugs added at the same time
[28] = erlotinib 6.0 μM alone, SNDX275 added as first drug
[29] = erlotinib 6.0 μM alone, both drugs added at the same time
[30] = erlotinib 10.0 μM alone, both drugs added at the same time

**Q.** For CC(/C=C/C(=O)NO)=C\[C@@H](C)C(=O)c1ccc(N(C)C)cc1 [trichostatin A], which “effect of inhibiting HDAC on E-cad” value [1] is on record?
**A.** Its value is “activation of E-cad”.

**Q.** Which “increase in EGFR phosphorylation” value [2] does the source give for “EGF: Epidermal growth factor purchased from R&D Systems Inc. (NSDSECPLSHDGYCLHDGVCMYIEALDKYACNCVVGYIGERCQYRDLKWWELR; Epidermal growth factor; UniProt P01133 971-1023, looked up)” here?
**A.** Its value is “two fold increase”.

**Q.** Which response rates [3] does the source give for C#Cc1cccc(Nc2ncnc3cc(OCCOC)c(OCCOC)cc23)c1 [erlotinib] here?
**A.** Its response rates is “about 10%”.

**Q.** And the surviving ([4]; erlotinib 0.03 μM alone)?
**A.** The surviving was 79.346%.

**Q.** And the surviving ([4]; erlotinib 1.00 μM alone)?
**A.** Its surviving is 49.804%.

**Q.** What about the surviving ([4]; erlotinib 6.00 μM alone) of the same molecule?
**A.** The surviving was 28.170%.

**Q.** And the surviving ([5]; erlotinib 0.5 μM alone)?
**A.** The surviving was 76.960%.

**Q.** And the surviving ([5]; erlotinib 5.0 μM alone)?
**A.** Its surviving is 49.683%.

**Q.** What about the surviving ([5]; erlotinib 10.0 μM alone) of the same molecule?
**A.** The surviving was 16.390%.

**Q.** And the surviving [6, 20]?
**A.** Its surviving is 81.459%.

**Q.** What about the surviving [6, 21] of the same molecule?
**A.** The surviving was 73.569%.

**Q.** What about the surviving ([6]; erlotinib 0.60 μM alone, SNDX275 added as first drug) of the same molecule?
**A.** The surviving was 56.459%.

**Q.** And the surviving ([6]; erlotinib 0.60 μM alone, both drugs added at the same time)?
**A.** The surviving was 40.826%.

**Q.** And the surviving [6, 22]?
**A.** Its surviving is 28.582%.

**Q.** What about the surviving [6, 23] of the same molecule?
**A.** Its surviving is 17.946%.

**Q.** And the surviving [7, 24]?
**A.** The surviving was 63.194%.

**Q.** And the surviving [7, 25]?
**A.** The surviving was 54.857%.

**Q.** And the surviving [7, 26]?
**A.** Its surviving is 53.632%.

**Q.** What about the surviving [7, 27] of the same molecule?
**A.** The surviving was 53.313%.

**Q.** What about the surviving [7, 28] of the same molecule?
**A.** Its surviving is 27.404%.

**Q.** And the surviving [7, 29]?
**A.** Its surviving is 36.701%.

**Q.** What about the surviving [8, 20] of the same molecule?
**A.** Its surviving is 83.931%.

**Q.** What about the surviving [8, 21] of the same molecule?
**A.** The surviving was 98.703%.

**Q.** What about the surviving ([8]; erlotinib 0.30 μM alone, SNDX275 added as first drug) of the same molecule?
**A.** Its surviving is 49.364%.

**Q.** What about the surviving ([8]; erlotinib 0.30 μM alone, both drugs added at the same time) of the same molecule?
**A.** Its surviving is 55.823%.

**Q.** What about the surviving [8, 22] of the same molecule?
**A.** Its surviving is 24.489%.

**Q.** And the surviving [8, 23]?
**A.** The surviving was 27.463%.

**Q.** And the surviving [9, 24]?
**A.** The surviving was 77.213%.

**Q.** What about the surviving [9, 25] of the same molecule?
**A.** Its surviving is 65.993%.

**Q.** And the surviving [9, 26]?
**A.** The surviving was 53.936%.

**Q.** And the surviving [9, 27]?
**A.** The surviving was 63.603%.

**Q.** What about the surviving [9, 28] of the same molecule?
**A.** Its surviving is 30.300%.

**Q.** What about the surviving [9, 29] of the same molecule?
**A.** The surviving was 47.335%.

**Q.** And the surviving ([10]; erlotinib 3.0 μM alone)?
**A.** The surviving was 70.581%.

**Q.** What about the surviving ([10]; erlotinib 7.0 μM alone) of the same molecule?
**A.** The surviving was 49.941%.

**Q.** And the surviving ([10]; erlotinib 10.0 μM alone)?
**A.** Its surviving is 25.563%.

**Q.** And the surviving ([11]; erlotinib 0.03 μM alone)?
**A.** Its surviving is 73.670%.

**Q.** And the surviving ([11]; erlotinib 0.60 μM alone)?
**A.** Its surviving is 43.685%.

**Q.** And the surviving ([11]; erlotinib 6.00 μM alone)?
**A.** The surviving was 19.177%.

**Q.** What about the surviving ([12]; erlotinib 3.0 μM alone, SNDX275 added as first drug) of the same molecule?
**A.** The surviving was 79.839%.

**Q.** And the surviving ([12]; erlotinib 3.0 μM alone, both drugs added at the same time)?
**A.** The surviving was 78.643%.

**Q.** What about the surviving ([12]; erlotinib 7.0 μM alone, SNDX275 added as first drug) of the same molecule?
**A.** The surviving was 53.060%.

**Q.** What about the surviving ([12]; erlotinib 7.0 μM alone, both drugs added at the same time) of the same molecule?
**A.** The surviving was 56.412%.

**Q.** What about the surviving ([12]; erlotinib 10.0 μM alone, SNDX275 added as first drug) of the same molecule?
**A.** Its surviving is 29.839%.

**Q.** And the surviving [12, 30]?
**A.** The surviving was 49.762%.

**Q.** And the surviving ([13]; erlotinib 1.0 μM alone, SNDX275 added as first drug)?
**A.** The surviving was 71.523%.

**Q.** And the surviving ([13]; erlotinib 1.0 μM alone, both drugs added at the same time)?
**A.** The surviving was 77.921%.

**Q.** And the surviving [13, 28]?
**A.** Its surviving is 49.547%.

**Q.** What about the surviving [13, 29] of the same molecule?
**A.** The surviving was 46.785%.

**Q.** What about the surviving [13, 30] of the same molecule?
**A.** Its surviving is 37.138%.

**Q.** What about the surviving ([14]; erlotinib 0.03 μM alone, SNDX275 added as first drug (first table)) of the same molecule?
**A.** The surviving was 70.495%.

**Q.** What about the surviving ([14]; erlotinib 0.03 μM alone, SNDX275 added as first drug (second table)) of the same molecule?
**A.** Its surviving is 89.125%.

**Q.** And the surviving ([14]; erlotinib 2.00 μM alone, SNDX275 added as first drug (first table))?
**A.** The surviving was 40.636%.

**Q.** And the surviving ([14]; erlotinib 2.00 μM alone, SNDX275 added as first drug (second table))?
**A.** Its surviving is 49.820%.

**Q.** What about the surviving ([14]; erlotinib 6.00 μM alone, SNDX275 added as first drug (first table)) of the same molecule?
**A.** Its surviving is 22.618%.

**Q.** What about the surviving ([14]; erlotinib 6.00 μM alone, SNDX275 added as first drug (second table)) of the same molecule?
**A.** The surviving was 29.934%.

**Q.** What about the surviving ([15]; erlotinib 6.0 μM alone) of the same molecule?
**A.** Its surviving is 67.497%.

**Q.** What about the surviving ([15]; erlotinib 8.0 μM alone) of the same molecule?
**A.** Its surviving is 52.894%.

**Q.** What about the surviving ([15]; erlotinib 10.0 μM alone) of the same molecule?
**A.** The surviving was 43.652%.

**Q.** With COc1cc2ncnc(Nc3ccc(F)c(Cl)c3)c2cc1OCCCN1CCOCC1 [gefitinib] as the molecule, how does the response rates [3] read?
**A.** Its response rates is “about 10%”.

**Q.** What about the “apoptotic or necrotic effect” value [16] of the same molecule?
**A.** The value was “no apoptotic or necrotic effect”.

**Q.** And the “apoptotic or necrotic effect” value [17]?
**A.** Its value is “no apoptotic or necrotic effect”.

**Q.** And the “apoptotic or necrotic effect” value [18]?
**A.** The value was “no apoptotic or necrotic effect”.

**Q.** What about the “apoptotic or necrotic effect” value [19] of the same molecule?
**A.** Its value is “no apoptotic or necrotic effect”.
